Results published in ChEMBL document CHEMBL1139125, “N-Benzyl-N-(tetrahydro-2H-pyran-4-yl)pyrrolidin-3-amines as selective dual serotonin/noradrenaline reuptake inhibitors” (Bioorg Med Chem Lett, 2007).

Legend:
in vitro [1] = conditions: human, liver microsomes
in vitro [2] = conditions: human, hepatocytes

Cc1cccc(CN(Cc2ccccn2)[C@H]2CCNC2)c1C
half-life (in vitro [1]): 0.233 h

Fc1cccc(CN(C2CCOCC2)[C@H]2CCNC2)c1C(F)(F)F
half-life (in vitro [1]): > 2 h

c1ccc(-c2ccccc2CN(C2CCOCC2)[C@H]2CCNC2)cc1
half-life (in vitro [1]): > 2 h
half-life (in vitro [2]): 1.38 h

Clc1cccc(CN(CC2CC2)[C@H]2CCNC2)c1Cl
half-life (in vitro [1]): > 2 h

Cc1cccc(CN(C2CCOCC2)[C@H]2CCNC2)c1Cl
half-life (in vitro [1]): > 2 h
half-life (in vitro [2]): 1.18 h

Cc1c(Cl)cccc1CN(C1CCOCC1)[C@H]1CCNC1
half-life (in vitro [1]): > 2 h
half-life (in vitro [2]): 1.73 h

COc1cccc(CN(C2CCOCC2)[C@H]2CCNC2)c1C
half-life (in vitro [1]): 1.57 h

Cc1cccc(CN(C2CCOCC2)[C@H]2CCNC2)c1C
half-life (in vitro [1]): > 2 h

Cc1c(CN(C2CCOCC2)[C@H]2CCNC2)cccc1C(F)(F)F
half-life (in vitro [1]): > 2 h
half-life (in vitro [2]): > 4 h

Clc1cccc(CN(Cc2ccccn2)[C@H]2CCNC2)c1Cl
half-life (in vitro [1]): 1.02 h

Cc1cccc(CN(Cc2ccccn2)[C@@H]2CCNC2)c1C
half-life (in vitro [1]): 0.4 h

Cc1cccc(CN(C2CCOCC2)[C@@H]2CCNC2)c1C
half-life (in vitro [1]): > 2 h

Clc1cccc(CN(CC2CC2)[C@@H]2CCNC2)c1Cl
half-life (in vitro [1]): > 2 h

Cc1ccccc1CN(C1CCOCC1)[C@H]1CCNC1
half-life (in vitro [1]): > 2 h

FC(F)(F)c1ccccc1CN(C1CCOCC1)[C@H]1CCNC1
half-life (in vitro [1]): > 2 h
